Measured values reported in patent publication US9988375B2, “Inhibitors of lysine gingipain” (priority 2014, dated 2018).
pIC50: −log10 of the molar value. Entries after “also recorded” stand apart in the source; their conditions may differ. Where two headings read alike, the source gives them in different places.

Legend:
[1] = target: lysine gingipain (Kgp) (Porphyromonas gingivalis (strain ATCC 33277 / DSM 20709 / CIP 103683 / JCM 12257 / NCTC 11834 / 2561), UniProt B2RLK2); assay: Lysine gingipain (Kgp) fluorogenic inhibition assay; type: biochemical
Protocol: The capacities of compounds of the present invention to inhibit the activity of lysine gingipain were measured in a fluorogenic assay similar to those described in Barret Biochemical Journal. 1980, 187(3), 909. The specific assay conditions were as follows. Buffer: pH=7.5, 100 mM Tris-HCl, 75 mM NaCl, 2.5 mM CaCl2, 10 mM cysteine, 1% DMSO after all additions. Protein: 0.1 nM Kgp, isolated from culture of Porphyromonas gingivalis, as described in Pike et al. J. Biol. Chem. 1994, 269(1), 406, and Potempa and Nguyen. Current Protocols in Protein Scienc. 2007, 21.20.1-21.20.27. Fluorogenic substrate: 10 uM Z-His-Glu-Lys-MCA. Time=90 minutes. Temperature=37° C. Each compound: 10 concentrations, starting at either 100 uM or 100 nM, with lower concentrations generated by serial 3-fold dilutions. By testing a range of concentrations for each compound, the concentration required to inhibit the activity of lysine gingipain by 50% (the “IC50”) was determined. Under the described assay conditions, signal-to-noise was excellent, and Z factor was greater than 0.6.
(§1) The inhibitory of activity of compounds described herein was tested against Kgp, RgpB, and trypsin.

[2] = tested on: SHSY5Y cells; assay: P. gingivalis-induced toxicity in SHSY5Y cells in vitro; type: cell-based; details: compared to the antibiotic moxifloxacin
[3] = target: RgpB (Porphyromonas gingivalis (strain ATCC BAA-308 / W83), UniProt P95493); assay: RgpB inhibition; type: biochemical
Protocol: as §1

[4] = tested on: abeta 42; assay: Brain abeta 42 ELISA in mice orally infected with P. gingivalis; type: in vivo, Balb/cJ mice; details: subcutaneously three times per day on days 21-42
Excerpt: Female Balb/cJ mice were obtained from Taconic and allowed to acclimate. 43-44 week old mice were challenged orally with 10^9 CFU W83 P. gingivalis or a P. gingivalis strain lacking expression of Kgp every other day for 42 days. Compound 2 or vehicle (2% DMSO) was given subcutaneously three times per day on days 21-42. On day 42 mice were sacrificed and the brain removed and frozen. A sample including hippocampal tissue was lysed in RIPA buffer with protease inhibitors and analyzed for Abeta42 expression with the Amyloid beta 42 ELISA Kit, Mouse (Life Technologies).

[5] = target: trypsin (Homo sapiens (Human), UniProt P07477); assay: Trypsin inhibition; type: biochemical
Protocol: as §1

[6] = tested on: differentiated SHSY-5Y cells; assay: Gingipain-induced death of differentiated SH-SY5Y cells; type: cell-based; details: 100 nM Kgp and/or RgpB for 24 hours
Protocol: SH-SY5Y neuroblastoma cells were cultured and differentiated in the presence of 5 uM retinoic acid based on established methods [Saberi S., et al. Cell Mol Neurobiol 2013. 33: 747-751]. Differentiation into neuronal cells was verified by observation of neurite outgrowth. The differentiated cells were exposed to 100 nM Kgp and/or RgpB for 24 hours, in the presence or absence of Kgp inhibitors. Results were recorded using a digital microscope camera (FIG. 1C, FIG. 2C). Gingipains are toxic to cells while COR compounds prevent the cytotoxicity.

Row | Structure (SMILES) | pIC50 ([1]; 0.1 nM Kgp, 10 uM Z-His-Glu-Lys-MCA, 90 minutes, 37° C., pH 7.5, read-out: Kgp IC50 average) | lysine gingipain IC50 value ([1]; in words) | protection of SHSY5Y cells from P. gingivalis-induced toxicity [2] | pIC50 [3] | pIC50 ([1]; read-out: Kgp IC50) | brain levels of abeta 42 (ELISA) [4] | pIC50 [5] | prevention of gingipain-induced death of differentiated SHSY-5Y cells [6]
1 | NCCCC[C@H](NC(=O)C1CCCC1)C(=O)COc1c(F)c(F)cc(F)c1F [Compound 43, N-[(1S)-5-amino-1-[2-(2,3,5,6-tetrafluorophenoxy)acetyl]pentyl]cyclo-pentanecarboxamide] | ≥ 9.00 | sub-nanomolar | protects | < 6.32 | – | – | – | –
2 | NCCCC[C@H](NC(=O)C1CCCCC1)C(=O)c1nc2ccccc2s1 [Compound 2, N-[(1S)-5-amino-1-(1,3-benzothiazole-2-carbonyl)pentyl]cyclohexanecarboxamide] | – | – | – | – | 8.00 to 9.00 | resolved; also recorded: increase in abeta42 that was not apparently | 5.30 | prevents; also recorded: more effective; also recorded: effective at preventing cell death
